The values that follow come from US20250214951A1, “3-PHENYLISOXAZOLE DERIVATIVE, AND PHARMACEUTICAL COMPOSITION FOR PREVENTING OR TREATING EYE DISEASE, CONTAINING SAME AS ACTIVE INGREDIENT” (VASTHERA CO., LTD., priority 2022, published 2025).

The subject of assay [1] is A2E-BDP present in human retinal pigment epithelial cells (ARPE-19). Put plainly: Screening of ability to remove A2E-fluorescent labeling substance (A2E-BDP), lysate fluorescence. It is filed as cell-based. Conditions: ARPE-19, 24 h, ARPE-19 loaded with 10 μM A2E-BDP 24 h, test compound 50 μM once, fluorescence ex 485/em 535 nm, read-out: Capacity (%) to remove A2E-BDP at 50 μM. As to the method:
The human retinal pigment epithelial cell line (ARPE-19) used in the experiment was provided by ATCC (American Type Culture Collection). The ARPE-19 cell line was cultured in DMEM medium containing 10% FBS. After culture, the cells were dispensed into 96-well plates at a concentration of 4×10^3 cells/well and cultured for 24 hours. The ARPE-19 cell line was treated with A2E-fluorescent labeling substance (A2E-BDP) at a concentration of 10 μM for 24 hours to induce the accumulation of A2E-BDP in the ARPE-19 cell line.
In order to evaluate the intracellular A2E removal ability of the compound of the present invention, an easily detectable A2E-fluorescent labeling substance (A2E-BDP) was used. The ARPE-19 cells prepared by the above method were treated with each test compound at a concentration of 50 μM once, and then cultured for 24 hours. The cells were lysed by adding a cell lysis buffer containing a protease inhibitor (50 mM Tris-chloride, pH 8.0, 150 mM sodium chloride, 1% NP-40, 1% sodium deoxycholate, 1% sodium dodecyl sulfate, and 2 mM ethylenediamine tetraacetic acid) to each 96-well. The prepared cell lysate was transferred to a white 96-well plate, and the fluorescence intensity was measured using a fluorescence microplate reader (VICTOR™ X3, Perkin Elmer, USA) (excitation 485 nm, emission 535 nm).

The subject of assay [2] is LC3-II. Put plainly: Concentration-dependent autophagy activation through increase of LC3-II (FIGS. 15 and 16). The class given is cell-based, human. As for the experimental part:
(§1) ARPE-19 was dispensed into a 6-well plate at a concentration of 1×10^5 cells/well and cultured for 24 hours. Then, cells were treated with example 17 compound of the present invention at concentrations of 10, 25, and 50 μM for 12 hours. Then, a cell lysis buffer containing a protease inhibitor was added to prepare a cell lysate. The LC3-II level was measured by Western immunoblotting using an anti-LC3-II antibody (Cell Signaling Technology, MA, USA). As an internal control, an antibody against β-actin (Cell Signaling Technology) was used and measured by Western immunoblotting in the same manner as above, and is shown in FIG. 6 (upper graph).
(§2) The autophagy activation effect of example compounds expected to have autophagy activation ability and low cytotoxicity among the example compounds in Table 2 above in human retinal pigment epithelial cells was evaluated according to Experimental Example 7. That is, the autophagy activation effect through the increase of LC3-II was evaluated in a concentration-dependent manner, and the results are shown in FIGS. 15 and 16.

Assay [3] deals with LC3-II. Put plainly: LC3-II production capacity at 10 μM (Table 4). It is filed as cell-based. Conditions: Homo sapiens, 12 h. As for the experimental part: as §1, §2

The fold induction is the ratio of treated to control signal. Low values mean a weak induction, high ones a strong induction.

With `CCCc1cc(-c2cc(Br)ccc2OC)no1` [Example 1, 3-(5-bromo-2-methoxyphenyl)-5-propylisoxazole], in assay [1], the inhibition at 50 µM amounted to 20.8%. On the same count and under the same terms, with `CCCc1cc(-c2cc(Br)ccc2O)no1` [Example 2, 4-bromo-2-(5-propylisoxazole-3-yl)phenol] the figure was 28.2%; with `CCCc1ccc(OC)c(-c2cc(CCC)on2)c1` [Example 3, 3-(2-methoxy-5-propylphenyl)-5-propylisoxazole], 0.6%; with `C=CCc1ccc(OC)c(-c2cc(CCC)on2)c1` [Example 4, 3-(5-allyl-2-methoxyphenyl)-5-propylisoxazole], 24.7%. The same measure, in the same setting: with `C=CCc1ccc(O)c(-c2cc(CCC)on2)c1` [Example 5, 4-allyl-2-(5-propylisoxazole-3-yl)phenol] the figure was 26.9%; with `CCCc1ccc(O)c(-c2cc(CCC)on2)c1` [Example 6, 4-propyl-2-(5-propylisoxazole-3-yl)phenol], 24%; with `COc1ccc(Br)cc1-c1cc(CO)on1` [Example 7, (3-(5-bromo-2-methoxyphenyl)isoxazole-5-yl)methanol], 16.6%. The same measure, in the same setting: to `OCc1cc(-c2cc(Br)ccc2O)no1` [Example 8, 4-bromo-2-(5-(hydroxymethyl)isoxazole-3-yl)phenol] belongs -15.3%.

Take `C=CCOCc1cc(-c2cc(Br)ccc2OC)no1` [Example 9, 5-((allyloxy)methyl)-3-(5-bromo-2-methoxyphenyl)isoxazole]: in assay [1], the inhibition at 50 µM amounted to 26.2%. The same measure, in the same setting: to `CCCc1ccc(OC)c(-c2cc(CO)on2)c1` [Example 10, (3-(2-methoxy-5-propylphenyl)isoxazole-5-yl)methanol] belongs 7.7%. The same measure, in the same setting: to `CCOC(=O)COCc1cc(-c2cc(Br)ccc2OC)no1` [Example 12, ethyl 2-((3-(5-bromo-2-methoxyphenyl)isoxazole-5-yl)methoxy)acetate] belongs 21.7%; to `COCc1cc(-c2cc(Br)ccc2OC)no1` [Example 13, 3-(5-bromo-2-methoxyphenyl)-5-(methoxymethyl)isoxazole], 31%; to `CCCc1ccc(O)c(-c2cc(CO)on2)c1` [Example 14, 2-(5-(hydroxymethyl)isoxazole-3-yl)-4-propylphenol], 35.2%. For the compound `C=CCc1ccc(OC)c(-c2cc(CO)on2)c1` [Example 15, (3-(5-allyl-2-methoxyphenyl)isoxazole-5-yl)methanol], in assay [1], the inhibition at 50 µM is 48.1%. Regarding `C=CCc1ccc(O)c(-c2cc(CO)on2)c1` [Example 16, 4-allyl-2-(5-(hydroxymethyl)isoxazole-3-yl)phenol], the inhibition at 50 µM in assay [1] stood at 49.9%.

For the compound `C=CCc1ccc(OC)c(-c2cc(COCC(=O)OCC)on2)c1` [Example 19, ethyl 2-((3-(5-allyl-2-methoxyphenyl)isoxazole-5-yl)methoxy)acetate], in assay [1], the inhibition at 50 µM was 37.4%.

Turning to `CCCc1ccc(OC)c(-c2cc(COC)on2)c1` [Example 20, 3-(2-methoxy-5-propylphenyl)-5-(methoxymethyl)isoxazole], in assay [1], the inhibition at 50 µM was determined as 17.2%. For the compound `C=CCc1ccc(OC)c(-c2cc(CN3CCN(CC=C)CC3)on2)c1` [Example 22, 3-(5-allyl-2-methoxyphenyl)-5-((4-allylpiperazine-1-yl)methyl)isoxazole], the inhibition at 50 µM in assay [1] came to 47.4%. With `C=CCc1ccc(OC)c(-c2cc(CN3CCN(Cc4ccccc4)CC3)on2)c1` [Example 23, 3-(5-allyl-2-methoxyphenyl)-5-((4-benzylpiperazine-1-yl)methyl)isoxazole], in assay [1], the inhibition at 50 µM turned out to be 45.5%. Still for that read-out and setting: to `C=CCc1ccc(OC)c(-c2cc(CN3CCN(CC(=O)OCC)CC3)on2)c1` [Example 24, ethyl 2-(4-((3-(5-allyl-2-methoxyphenyl)isoxazole-5-yl)methyl)piperazine-1-yl)acetate] belongs 38.5%; to `C=CCc1ccc(OC)c(-c2cc(CN3CCN(C(=O)OC(C)(C)C)CC3)on2)c1` [Example 25, tert-butyl 4-((3-(5-allyl-2-methoxyphenyl)isoxazole-5-yl)methyl)piperazine-1-carboxylate], 45.9%. For `COc1ccc(Br)cc1-c1cc(CN2CCNCC2)on1` [Example 28, 3-(5-bromo-2-methoxyphenyl)-5-(piperazine-1-ylmethyl)isoxazole], the “autophagy activation effect through the increase of LC3-II” value in the assay on LC3-II [2] is “excellent autophagy activation effects”. For the same compound, in the assay with LC3-II [3], the fold induction at 10 µM was determined as 4.6. `CCCc1ccc(OC)c(-c2cc(CN3CCNCC3)on2)c1` [Example 30, 3-(2-methoxy-5-propylphenyl)-5-(piperazine-1-ylmethyl)isoxazole]: the “autophagy activation effect through the increase of LC3-II” value in the assay on LC3-II [2] is given as “excellent autophagy activation effects”. In the assay with LC3-II [3], this compound displayed a fold induction at 10 µM of 2.3. For `COc1ccc(C(F)(F)F)cc1-c1cc(CN2CCNCC2)on1` [Example 34, 3-(2-methoxy-5-(trifluoromethyl)phenyl)-5-(piperazine-1-ylmethyl)isoxazole], in that order: “excellent autophagy activation effects” and 2.5. Consider `C=CCc1ccc(OC)c(-c2cc(CN3CCN(C)CC3)on2)c1` [Example 41, 3-(5-allyl-2-methoxyphenyl)-5-((4-methylpiperazine-1-yl)methyl)isoxazole], for which the “autophagy activation effect through the increase of LC3-II” value in the assay with LC3-II [2] was “excellent autophagy activation effects”. Further, the fold induction at 10 µM in the assay with LC3-II [3] was 2.3. With `CCCc1ccc(OC)c(-c2cc(CN3CCN(C)CC3)on2)c1` [Example 42, 3-(2-methoxy-5-propylphenyl)-5-((4-methylpiperazine-1-yl)methyl)isoxazole], the “autophagy activation effect through the increase of LC3-II” value in the assay on LC3-II [2] is “excellent autophagy activation effects”. The fold induction at 10 µM in the assay with LC3-II [3] was 2.3. For the compound `COc1ccc(C(C)C)cc1-c1cc(CN2CCNCC2)on1` [Example 47, 3-(5-isopropyl-2-methoxyphenyl)-5-(piperazine-1-ylmethyl)isoxazole], in the assay with LC3-II [2], the “autophagy activation effect through the increase of LC3-II” value is on record as “excellent autophagy activation effects”. Moreover, the fold induction at 10 µM in the assay with LC3-II [3] was determined as 2.7. With `CCCc1cc(-c2cc(CN3CCNCC3)on2)c(OC)cc1F` [Example 58, 3-(4-fluoro-2-methoxy-5-propylphenyl)-5-(piperazine-1-ylmethyl)isoxazole], the “autophagy activation effect through the increase of LC3-II” value with LC3-II [2] was “excellent autophagy activation effects”. This compound came in with a fold induction at 10 µM in the assay on LC3-II [3] of 3.2. Taken in the same sequence, the figures for `CCCc1cc(-c2cc(CN3CCN(C)CC3)on2)c(OC)cc1F` [Example 59, 3-(4-fluoro-2-methoxy-5-propylphenyl)-5-((4-methylpiperazine-1-yl)methyl)isoxazole] were “excellent autophagy activation effects” and 3.1. As for `C=C(C)Cc1ccc(OC)c(-c2cc(CO)on2)c1` [Example 68, (3-(2-methoxy-5-(2-methylallyl)phenyl)isoxazole-5-yl)methanol], the fold induction at 10 µM with LC3-II [3] is 7.7. Still for that read-out and setting: with `COc1ccc(CC=C(C)C)cc1-c1cc(CN2CCN(C)CC2)on1` [Example 69, 3-(2-methoxy-5-(3-methylbut-2-en-1-yl)phenyl)-5-((4-methylpiperazine-1-yl)methyl)isoxazole] the figure was 5.
